How the values were obtained:
human PDE4B1 = biological target: T1, human PDE4B1 (Homo sapiens, UniProt Q07343); assay: PDElight HTS cAMP phosphodiesterase assay, PDE4B1; format: biochemical; settings: for inhibition at 10 µM: read-out: PDE 4B1 % Inhibition ± SEM at 10 µM; for IC50: read-out: PDE 4B1 IC50 ± SEM
T1 construct: purchased BPS Biosciences
Description: (§1) Further biological evaluation of the presented compound library was performed determining inhibitory potencies against selected human PDE isoforms, namely, PDE4 and PDE10 (for results see Table 3).
(§2) Tested and reference compounds were dissolved in dimethyl sulfoxide (DMSO) at a concentration of 10 mM and further diluted in assay buffer (10 mM Tris-HCl, 10 mM magnesium chloride and 0.05% Tween-20; pH 7.4). Inhibition of human PDE10A and 4B1 was measured using PDElight HTS cAMP phosphodiesterase assay kit (Lonza, Basel, Switzerland) according to manufacturer’s recommendations. Then, 10 ng of PDE10A and 5 ng of PDE4B1 (BPS Biosciences, San Diego, CA, USA) in appropriate buffer was incubated with reference and tested compound for 20 min. […] Then PDELight AMP Detection Reagent was added and incubated 10 min. All reactions were carried out at 37 °C in 96 white-walled, half-area-well plates (PerkinElmer). Luminescence was measured in a multifunction plate reader (POLARstar Omega, BMG Labtech, Ortenberg, Germany). The percentage of inhibition and IC50s were computed using GraphPad Prism Version 6.0 software.

DPPH antioxidant assay = format: physicochemical; settings: compound at 50 µM
Excerpt: The 2,2-diphenyl-1-picrylhydrazyl (DPPH) assay was used to determine the antioxidant properties of selected compounds using ascorbic acid, trolox, and quercetin as references. […] From a structural point of view, 21 and 22 share a common pyrimido[2,1-f]purinedione core with propyl or butyl substituents at the N1- and N3-position. Compounds 11i and 11l, containing hexyl or phenoxyethyl as N7-substituents, were the only structures in the groups of bicyclic xanthine derivatives that lacked antioxidant activity in the DPPH assay.
Antioxidant properties of considered structures were evaluated in DPPH test. The assay utilizes a stable free radical 2,2-diphenyl-1-picrylhydrazyl (DPPH). DPPH has a deep violet color in solution and strong absorption band at 520 nm. The antioxidant activity of the tested compounds was defined by their ability to induce the formation of the reduced form of DPPH. Upon reduction, DPPH color turned pale yellow, which manifested by decreased sample absorption at 520 nm and was measured in conducted experiments using EnSpire microplate reader (PerkinElmer). Antioxidant activity of xanthine derivatives and reference compounds was tested in triplicate at 50 µM concentration and normalized to the activity of reference radical scavenger—quercetin.
Figure 2 Antioxidant properties of xanthine derivatives evaluated in the DPPH test. All compounds were tested at 50 µM concentration. Results were normalized to the antioxidant activity measured for quercetin. ASC, ascorbic acid; TLX, trolox; QCT, quercetin.

rat A1 (rA1) ARs = biological target: T2, rat A1 (rA1) ARs (Rattus norvegicus, UniProt P25099); assay: Radioligand binding [3H]CCPA, rat brain cortical membranes; settings: read-out: rA1 [3H]CCPA Ki ± SEM
T2 construct: using rat brain cortical membrane preparations for A1; tissue Pel Freez; host or cells: rat brain cortex membranes
T2 sequence (P25099 1-326): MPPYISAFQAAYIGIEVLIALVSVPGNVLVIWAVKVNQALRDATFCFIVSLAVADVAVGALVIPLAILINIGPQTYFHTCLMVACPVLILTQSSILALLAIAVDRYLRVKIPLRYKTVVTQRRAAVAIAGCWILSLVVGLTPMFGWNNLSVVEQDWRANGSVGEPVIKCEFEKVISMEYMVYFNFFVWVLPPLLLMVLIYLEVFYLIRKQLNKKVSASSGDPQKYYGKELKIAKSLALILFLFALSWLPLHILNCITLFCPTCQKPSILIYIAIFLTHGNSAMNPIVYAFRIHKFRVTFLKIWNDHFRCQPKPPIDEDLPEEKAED
Description: The final compounds were tested in radioligand binding assays to evaluate their affinity for all four ARs subtypes (see Table 2). Rat brain cortical membrane preparations were used as a source of rat A1 (rA1) ARs, and rat brain striatal membrane preparations served as a source of rat A2A (rA2A) ARs. For A2B- and A3AR assays, membrane preparations of Chinese hamster ovary (CHO) cells recombinantly expressing either human A2B (hA2B) or human A3 (hA3) ARs were employed.
Adenosine receptor radioligand binding assays were performed as previously described using rat brain cortical membrane preparations for A1 and rat brain striatal membrane preparations for A2A AR assays. Frozen rat brains (unstripped) were obtained from Pel Freez, Rogers, AR, USA. For assays at human AR subtypes, cell membranes of CHO cells recombinantly expressing the respective receptor were used. The following compounds were employed as radioligands: A1: [^3H]2-chloro-N^6-cyclopentyladenosine ([^3H]CCPA); A2A: [^3H]3-(3-hydroxypropyl)-7-methyl-8-(m-methoxystyryl)-1-propargylxanthine ([^3H]MSX-2); A2B: [^3H]8-(4-(4-(4-chlorophenyl)piperazine-1-sulfonyl)phenyl)-1-propylxanthine ([^3H]PSB-603); A3: [^3H]phenyl-8-ethyl-4-methyl-(8R)-4,5,7,8-tetrahydro-1H-imidazo[2,1-i]purine-5-one ([^3H]PSB-11). Initially, a single high concentration of compound was tested (1 µM). For potent compounds, full concentration–inhibition curves were determined using six to ten different concentrations of test compound spanning three orders of magnitude. At least three independent experiments were performed. Data were analyzed using GraphPad PRISM program version 4.0 or higher (Graph Pad, San Diego, CA, USA).

human MAO-B = biological target: T3, human MAO-B (Homo sapiens, UniProt P27338); assay: Amplex Red monoamine oxidase assay, MAO-B; format: biochemical; settings: human recombinant MAO-B; read-out: MAO-B IC50 ± SEM
T3 construct: purchased Sigma Aldrich M7441
T3 sequence (P27338 1-520): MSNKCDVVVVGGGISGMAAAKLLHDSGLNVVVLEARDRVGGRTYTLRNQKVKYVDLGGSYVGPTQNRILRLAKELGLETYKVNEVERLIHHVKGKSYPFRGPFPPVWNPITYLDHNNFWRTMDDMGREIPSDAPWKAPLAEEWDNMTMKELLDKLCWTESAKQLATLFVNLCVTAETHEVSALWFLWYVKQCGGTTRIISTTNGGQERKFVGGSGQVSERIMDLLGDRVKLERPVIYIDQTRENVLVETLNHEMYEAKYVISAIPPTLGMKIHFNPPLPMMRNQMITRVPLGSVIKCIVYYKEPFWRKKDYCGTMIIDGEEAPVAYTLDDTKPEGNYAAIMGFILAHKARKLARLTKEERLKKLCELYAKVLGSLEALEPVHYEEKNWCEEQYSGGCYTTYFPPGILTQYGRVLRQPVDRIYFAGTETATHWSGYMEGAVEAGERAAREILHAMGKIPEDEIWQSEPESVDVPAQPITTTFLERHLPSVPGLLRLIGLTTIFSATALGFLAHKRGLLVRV

human PDE10A1 = biological target: T4, human PDE10A1 (Homo sapiens, UniProt Q9Y233); assay: PDElight HTS cAMP phosphodiesterase assay, PDE10A1; format: biochemical; settings: for inhibition at 10 µM: read-out: PDE 10A1 % Inhibition ± SEM at 10 µM; for IC50: read-out: PDE 10A1 IC50 ± SEM
T4 construct: purchased BPS Biosciences
T4 sequence (Q9Y233 1-779 isoform Q9Y233-1): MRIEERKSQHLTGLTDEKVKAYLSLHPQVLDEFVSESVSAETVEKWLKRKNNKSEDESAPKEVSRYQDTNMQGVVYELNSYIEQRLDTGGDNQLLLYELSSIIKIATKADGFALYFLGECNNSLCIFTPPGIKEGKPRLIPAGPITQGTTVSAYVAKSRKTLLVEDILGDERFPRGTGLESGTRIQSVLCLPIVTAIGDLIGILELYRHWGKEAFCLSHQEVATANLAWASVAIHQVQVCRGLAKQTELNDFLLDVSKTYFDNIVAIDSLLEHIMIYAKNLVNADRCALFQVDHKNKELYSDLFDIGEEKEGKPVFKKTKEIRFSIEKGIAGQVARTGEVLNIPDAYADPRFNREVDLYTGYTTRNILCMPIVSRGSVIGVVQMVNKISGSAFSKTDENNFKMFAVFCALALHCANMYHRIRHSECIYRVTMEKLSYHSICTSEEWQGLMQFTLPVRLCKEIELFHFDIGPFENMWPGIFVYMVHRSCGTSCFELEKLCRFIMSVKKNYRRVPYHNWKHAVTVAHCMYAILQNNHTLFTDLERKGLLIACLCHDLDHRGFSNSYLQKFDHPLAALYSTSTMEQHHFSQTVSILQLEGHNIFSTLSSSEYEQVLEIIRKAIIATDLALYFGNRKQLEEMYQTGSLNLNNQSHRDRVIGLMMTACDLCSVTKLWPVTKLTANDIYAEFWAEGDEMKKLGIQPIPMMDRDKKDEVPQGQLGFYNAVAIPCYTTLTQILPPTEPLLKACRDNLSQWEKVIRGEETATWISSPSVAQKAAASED
Description: as §1, §2

T1 sequence (Q07343 whole entry): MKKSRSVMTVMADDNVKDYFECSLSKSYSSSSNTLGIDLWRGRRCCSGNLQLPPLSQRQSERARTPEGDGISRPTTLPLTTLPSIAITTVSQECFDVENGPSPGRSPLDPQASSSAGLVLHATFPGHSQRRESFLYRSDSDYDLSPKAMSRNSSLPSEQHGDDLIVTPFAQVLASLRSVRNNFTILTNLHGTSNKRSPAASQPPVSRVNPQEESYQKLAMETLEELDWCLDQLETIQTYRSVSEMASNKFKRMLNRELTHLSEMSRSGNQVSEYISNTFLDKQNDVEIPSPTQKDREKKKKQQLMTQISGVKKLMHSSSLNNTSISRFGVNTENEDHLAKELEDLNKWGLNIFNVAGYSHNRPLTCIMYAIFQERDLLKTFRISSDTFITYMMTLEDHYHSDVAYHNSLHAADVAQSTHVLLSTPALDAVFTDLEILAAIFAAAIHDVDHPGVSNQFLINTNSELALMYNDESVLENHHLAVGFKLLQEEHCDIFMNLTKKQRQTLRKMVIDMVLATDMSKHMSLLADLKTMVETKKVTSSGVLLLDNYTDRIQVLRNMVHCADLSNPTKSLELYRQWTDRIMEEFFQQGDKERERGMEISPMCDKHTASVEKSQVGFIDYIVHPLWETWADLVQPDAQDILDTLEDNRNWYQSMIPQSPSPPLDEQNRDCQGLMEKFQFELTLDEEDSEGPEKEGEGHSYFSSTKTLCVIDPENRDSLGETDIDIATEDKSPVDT

| inhibition at 10 µM (human PDE4B1) [%] | IC50 (human PDE4B1) [nM] | Ki (rat A1 (rA1) ARs) [nM] | IC50 (human MAO-B) [nM] | inhibition at 10 µM (human PDE10A1) [%] | IC50 (human PDE10A1) [nM] | SMILES | Antioxidative Activity [% of Quercetin Response at 50 µM ± SD] (DPPH antioxidant assay) |
| --- | --- | --- | --- | --- | --- | --- | --- |
| 42 | > 10000 | > 10000 | 76.4 ± 0.7 | 14 | > 10000 | CCCCCCn1c(NCCc2ccc(O)c(O)c2)nc2c1c(=O)n(C)c(=O)n2C [Compound 11i, 8-((3,4-Dihydroxyphenethyl)amino)-7-hexyl-1,3-dimethyl-3,7-dihydro-1H-purine-2,6-dione] | 26 ± 1 % of Quercetin Response |
| – | 3760 ± 160 | 1130 ± 180 | 205 ± 23 | 59 | – | CC(C)Cn1c(NCCc2ccc(O)c(O)c2)nc2c1c(=O)n(C)c(=O)n2C [Compound 11f, 8-((3,4-Dihydroxyphenethyl)amino)-7-isobutyl-1,3-dimethyl-3,7-dihydro-1H-purine-2,6-dione] | 57 ± 1 % of Quercetin Response |
| – | 2440 ± 800 | 857 ± 43 | 126 ± 49 | – | 2300 ± 640 | CC(C)n1c(NCCc2ccc(O)c(O)c2)nc2c1c(=O)n(C)c(=O)n2C [Compound 11d, 8-((3,4-Dihydroxyphenethyl)amino)-7-isopropyl-1,3-dimethyl-3,7-dihydro-1H-purine-2,6-dione] | 87 ± 1 % of Quercetin Response |
| 24 | > 10000 | 53 ± 8 | 170 ± 30 | 25 | > 10000 | CCCCn1c(=O)c2c(nc3n2CCCN3CCc2ccc(O)c(O)c2)n(CCCC)c1=O [Compound 22, 1,3-Dibutyl-9-(3,4-dihydroxyphenethyl)-6,7,8,9-tetrahydropyrimido[2,1-f]purine-2,4(1H,3H)-dione] | 26 ± 2 % of Quercetin Response |
| – | 4410 ± 230 | 1170 ± 380 | 197 ± 57 | – | 10200 ± 900 | CCC(C)n1c(NCCc2ccc(O)c(O)c2)nc2c1c(=O)n(C)c(=O)n2C (stereo not drawn) [Compound 11g, 7-(Sec-butyl)-8-((3,4-dihydroxyphenethyl)amino)-1,3-dimethyl-3,7-dihydro-1H-purine-2,6-dione] | 71 ± 1 % of Quercetin Response |
| 20 | > 10000 | 124 ± 22 | 53.5 ± 18.2 | 17 | > 10000 | Cn1c(=O)c2c(nc(NCCc3ccc(O)c(O)c3)n2CCOc2ccccc2)n(C)c1=O [Compound 11l, 8-((3,4-Dihydroxyphenethyl)amino)-1,3-dimethyl-7-(2-phenoxyethyl)-3,7-dihydro-1H-purine-2,6-dione] | 26 ± 3 % of Quercetin Response |
| 44 | > 10000 | ≥ 10000 | 121 ± 23 | 35 | > 10000 | Cn1c(=O)c2c(nc3n2CCCN3CCc2ccc(O)c(O)c2)n(C)c1=O [Compound 20a, 9-(3,4-Dihydroxyphenethyl)-1,3-dimethyl-6,7,8,9-tetrahydropyrimido[2,1-f]purine-2,4(1H,3H)-dione] | 68 ± 2 % of Quercetin Response |
| – | 16500 ± 320 | 70 ± 5 | 157 ± 39 | – | 31000 ± 100 | CCCn1c(=O)c2c(nc3n2CCCN3CCc2ccc(O)c(O)c2)n(CCC)c1=O [Compound 21, 9-(3,4-Dihydroxyphenethyl)-1,3-dipropyl-6,7,8,9-tetrahydropyrimido[2,1-f]purine-2,4(1H,3H)-dione] | 13 ± 1 % of Quercetin Response |
| – | 3160 ± 530 | 304 ± 66 | 43.8 ± 16.2 | – | 3770 ± 1290 | CCCCn1c(NCCc2ccc(O)c(O)c2)nc2c1c(=O)n(C)c(=O)n2C [Compound 11e, 7-Butyl-8-((3,4-dihydroxyphenethyl)amino)-1,3-dimethyl-3,7-dihydro-1H-purine-2,6-dione] | 75 ± 1 % of Quercetin Response |
| – | 3290 ± 540 | 455 ± 77 | 45.6 ± 12.9 | 36 | ≥ 10000 | Cn1c(=O)c2c(nc(NCCc3ccc(O)c(O)c3)n2Cc2ccccc2)n(C)c1=O [Compound 11j, 7-Benzyl-8-((3,4-dihydroxyphenethyl)amino)-1,3-dimethyl-3,7-dihydro-1H-purine-2,6-dione] | 82 ± 1 % of Quercetin Response |
| – | 4430 ± 250 | 191 ± 30 | 58.3 ± 6.2 | 51 | ≥ 10000 | CCCCCn1c(NCCc2ccc(O)c(O)c2)nc2c1c(=O)n(C)c(=O)n2C [Compound 11h, 8-((3,4-Dihydroxyphenethyl)amino)-1,3-dimethyl-7-pentyl-3,7-dihydro-1H-purine-2,6-dione] | 79 ± 1 % of Quercetin Response |

| SMILES | inhibition at 10 µM (human PDE4B1) [%] | IC50 (human PDE4B1) [nM] | Ki (rat A1 (rA1) ARs) [nM] | IC50 (human MAO-B) [nM] | inhibition at 10 µM (human PDE10A1) [%] | IC50 (human PDE10A1) [nM] | Antioxidative Activity [% of Quercetin Response at 50 µM ± SD] (DPPH antioxidant assay) |
| --- | --- | --- | --- | --- | --- | --- | --- |
| CCCCn1c(=O)c2c(nc(NCCc3ccc(O)c(O)c3)n2CCC)n(CCCC)c1=O [Compound 13, 1,3-Dibutyl-8-((3,4-dihydroxyphenethyl)amino)-7-propyl-3,7-dihydro-1H-purine-2,6-dione] | 28 | > 10000 | 100 ± 15 | 81.8 ± 19.7 | 26 | > 10000 | 61 ± 1 % of Quercetin Response |

— paper PMC10377586 (Biomolecules, 2023)
